The text below walks through data of patent US7205329B2, “Modulators of CRTH2 activity” (Microbia, Inc., priority 2003, dated 2007).

Test [1] deals with CCR3. The following applies: Stubbs et al. 2002, J Biol Chem 277:26012–26020; cited from earlier work.
In test [2] the test system is neutrophils. In words: CD11b expression assay, neutrophil control for CRTH2 agonist activity. Type of test: cell-based, human. The following applies: leukocytes incubated with test compound 10 min at room temperature; flow cytometry. The source says: CRTH2 agonists increase the expression of CD11b on eosinophils. […] They do, however, express receptors for other lipid mediators, including 5-oxo-6,8,11,14-eicosatetraenoic acid (5-oxo-ETE), leukotriene B4 (LTB4), and platelet activating factor. Therefore, any increased expression of CD11b by neutrophils is likely to be caused by an activity other than activation of CRTH2. Accordingly, preferred compounds increase CD11b expression on eosinophils, but not on neutrophils.
The potential CRTH2 agonist activity of certain compounds was tested using a CD11b expression assay using essentially the method described by Monneret et al. (J Pharmacol Exp Ther 304:349–55, 2003), and the results of this analysis are presented in FIG. 1 where the results of two separate experiments are reported.
Briefly, leukocytes (0.5 ml; 10^6/ml cells) in PBS containing 0.9 mM CaCl2 and 0.5 mM MgCl2) were incubated with a test compound at room temperature for 10 min. The incubations were terminated by the addition of ice-cold FACSFlow (BD Biosciences; Cat# 342003) and centrifugation (400 g for 5 min at 4° C.). […] The distribution of fluorescence intensities among 60,000 cells was measured by flow cytometry. Eosinophils were gated out on the basis of their granularity (high side scatter) and labeling with VLA-4 (PE fluorescence). CD11b was then measured in the eosinophil region on the basis of fluorescence due to FITC. […]

As to `COc1ccc2c(c1)c(CC(=O)O)c(C)n2C(=O)c1ccc(Cl)cc1` [indomethacin], the “expression of CCR3, the receptor for eotaxin” value in test [1] is given as “reduces expression of CCR3”.

As to `CCCCCC=CCC=CCC=CC=CC(=O)CCCC(=O)O` [5-oxo-ETE, 5-oxo-6,8,11,14-eicosatetraenoic acid], the “expression of CD11b on neutrophils” value in test [2] is recorded as “increased expression of CD11b on neutrophils”.
